Data from the supplement of paper PMC10307832.

How the values were obtained:
Test in all cases: relative viability (nuclei count vs DMSO), 5 days (fraction); higher = more cells survive
A-427 = system: A-427
Procedure, shortened: (§1)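 Cells from lung cancer lines were seeded into 1536-well plates and, one day later, dosed by pin tool. Treatments were either a single drug or a fixed dose of an anchor drug with five library-drug doses (not always all listed) in √10 steps. After 5 days, nuclei were stained in a one-step fixation (final 0.05% Triton X-100, 1% formaldehyde, 1 ug/ml Hoechst) and counted on 4× images, and relative viability is the treated-to-vehicle nuclei ratio, as the median of duplicate plates.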

ChaGo-K-1 = system: ChaGo-K-1
Procedure, shortened: as §1

EKVX = system: EKVX
Procedure, shortened: as §1

H3255 = system: H3255
Procedure, shortened: as §1

LK-2 = system: LK-2
Procedure, shortened: as §1

NCI-H1355 = system: NCI-H1355
Procedure, shortened: as §1

NCI-H1650 = system: NCI-H1650
Procedure, shortened: as §1

NCI-H1666 = system: NCI-H1666
Procedure, shortened: as §1

NCI-H1755 = system: NCI-H1755
Procedure, shortened: as §1

NCI-H1944 = system: NCI-H1944
Procedure, shortened: as §1

NCI-H2085 = system: NCI-H2085
Procedure, shortened: as §1

NCI-H2228 = system: NCI-H2228
Procedure, shortened: as §1

NCI-H2347 = system: NCI-H2347
Procedure, shortened: as §1

NCI-H3122 = system: NCI-H3122
Procedure, shortened: as §1

NCI-H322M = system: NCI-H322M
Procedure, shortened: as §1

NCI-H358 = system: NCI-H358
Procedure, shortened: as §1

NCI-H441 = system: NCI-H441
Procedure, shortened: as §1

NCI-H460 = system: NCI-H460
Procedure, shortened: as §1

NCI-H520 = system: NCI-H520
Procedure, shortened: as §1

NCI-H596 = system: NCI-H596
Procedure, shortened: as §1

NCI-H650 = system: NCI-H650
Procedure, shortened: as §1

NCI-H838 = system: NCI-H838
Procedure, shortened: as §1

SW 1573 = system: SW 1573
Procedure, shortened: as §1

O=C(O)CCCCC(CCSCc1ccccc1)SCc1ccccc1 (centres undefined) [CPI-613] + Nc1nc2[nH]cc(CCc3ccc(C(=O)N[C@@H](CCC(=O)O)C(=O)O)cc3)c2c(=O)[nH]1 [Pemetrexed] (partner 0.2 µM) showed a relative viability (A-427; first compound 5 µM) of 1.04, a relative viability (A-427; first compound 15.81 µM) of 0.84 and a relative viability (A-427; first compound 50 µM) of 0.928. For the same compound, the relative viability (A-427; first compound 158.11 µM) was 0.857, the relative viability (A-427; first compound 500 µM) was 0.444 and the relative viability (ChaGo-K-1; first compound 5 µM) was 0.269. The relative viability (ChaGo-K-1; first compound 15.81 µM) was 0.261, the relative viability (ChaGo-K-1; first compound 50 µM) was 0.264 and the relative viability (ChaGo-K-1; first compound 158.11 µM) was 0.248. The relative viability (ChaGo-K-1; first compound 500 µM) was 0.187, the relative viability (EKVX; first compound 5 µM) was 0.373 and the relative viability (EKVX; first compound 15.81 µM) was 0.355. For the same compound, the relative viability (EKVX; first compound 50 µM) was 0.306, the relative viability (EKVX; first compound 500 µM) was 0.388 and the relative viability (H3255; first compound 5 µM) was 0.543. It also gave a relative viability (H3255; first compound 15.81 µM) of 0.54, a relative viability (H3255; first compound 50 µM) of 0.543 and a relative viability (H3255; first compound 158.11 µM) of 0.534. It also gave a relative viability (H3255; first compound 500 µM) of 0.523, a relative viability (LK-2; first compound 5 µM) of 0.337 and a relative viability (LK-2; first compound 15.81 µM) of 0.225. It also gave a relative viability (LK-2; first compound 50 µM) of 0.324, a relative viability (LK-2; first compound 158.11 µM) of 0.265 and a relative viability (LK-2; first compound 500 µM) of 0.241. It also gave a relative viability (NCI-H1355; first compound 5 µM) of 1.02, a relative viability (NCI-H1355; first compound 15.81 µM) of 0.983 and a relative viability (NCI-H1355; first compound 50 µM) of 1.06. The relative viability (NCI-H1355; first compound 158.11 µM) was 0.754, the relative viability (NCI-H1355; first compound 500 µM) was 0.457 and the relative viability (NCI-H1650; first compound 5 µM) was 0.346. It also gave a relative viability (NCI-H1650; first compound 15.81 µM) of 0.376, a relative viability (NCI-H1650; first compound 50 µM) of 0.393 and a relative viability (NCI-H1650; first compound 158.11 µM) of 0.151. The relative viability (NCI-H1650; first compound 500 µM) was 0.0174, the relative viability (NCI-H1666; first compound 5 µM) was 0.892 and the relative viability (NCI-H1666; first compound 15.81 µM) was 0.857. For the same compound, the relative viability (NCI-H1666; first compound 50 µM) was 0.835, the relative viability (NCI-H1666; first compound 158.11 µM) was 0.489 and the relative viability (NCI-H1666; first compound 500 µM) was 0.471. The relative viability (NCI-H1755; first compound 5 µM) was 0.436, the relative viability (NCI-H1755; first compound 15.81 µM) was 0.57 and the relative viability (NCI-H1755; first compound 50 µM) was 0.371. It also gave a relative viability (NCI-H1755; first compound 158.11 µM) of 0.396, a relative viability (NCI-H1755; first compound 500 µM) of 0.372 and a relative viability (NCI-H1944; first compound 5 µM) of 0.647. For the same compound, the relative viability (NCI-H1944; first compound 15.81 µM) was 0.575, the relative viability (NCI-H1944; first compound 50 µM) was 0.577 and the relative viability (NCI-H1944; first compound 158.11 µM) was 0.339. It also gave a relative viability (NCI-H1944; first compound 500 µM) of 0.408, a relative viability (NCI-H2085; first compound 5 µM) of 0.827 and a relative viability (NCI-H2085; first compound 15.81 µM) of 0.672. The relative viability (NCI-H2085; first compound 50 µM) was 0.82, the relative viability (NCI-H2085; first compound 158.11 µM) was 0.492 and the relative viability (NCI-H2085; first compound 500 µM) was 0.18. It also gave a relative viability (NCI-H2228; first compound 5 µM) of 0.362, a relative viability (NCI-H2228; first compound 15.81 µM) of 0.33 and a relative viability (NCI-H2228; first compound 50 µM) of 0.324. It also gave a relative viability (NCI-H2228; first compound 158.11 µM) of 0.272, a relative viability (NCI-H2228; first compound 500 µM) of 0.059 and a relative viability (NCI-H2347; first compound 5 µM) of 0.413. It also gave a relative viability (NCI-H2347; first compound 15.81 µM) of 0.434, a relative viability (NCI-H2347; first compound 50 µM) of 0.405 and a relative viability (NCI-H2347; first compound 158.11 µM) of 0.383. It also gave a relative viability (NCI-H2347; first compound 500 µM) of 0.419, a relative viability (NCI-H3122; first compound 5 µM) of 0.19 and a relative viability (NCI-H3122; first compound 15.81 µM) of 0.194. The relative viability (NCI-H3122; first compound 50 µM) was 0.181, the relative viability (NCI-H3122; first compound 158.11 µM) was 0.181 and the relative viability (NCI-H3122; first compound 500 µM) was 0.153. The relative viability (NCI-H322M; first compound 5 µM) was 0.617, the relative viability (NCI-H322M; first compound 15.81 µM) was 0.58 and the relative viability (NCI-H322M; first compound 50 µM) was 0.616. The relative viability (NCI-H322M; first compound 158.11 µM) was 0.637, the relative viability (NCI-H322M; first compound 500 µM) was 0.441 and the relative viability (NCI-H358; first compound 5 µM) was 0.152. It also gave a relative viability (NCI-H358; first compound 15.81 µM) of 0.172, a relative viability (NCI-H358; first compound 50 µM) of 0.182 and a relative viability (NCI-H358; first compound 158.11 µM) of 0.156. It also gave a relative viability (NCI-H358; first compound 500 µM) of 0.0253, a relative viability (NCI-H441; first compound 5 µM) of 0.266 and a relative viability (NCI-H441; first compound 15.81 µM) of 0.242. The relative viability (NCI-H441; first compound 50 µM) was 0.236, the relative viability (NCI-H441; first compound 158.11 µM) was 0.151 and the relative viability (NCI-H441; first compound 500 µM) was 0.0045. The relative viability (NCI-H460; first compound 5 µM) was 0.0641, the relative viability (NCI-H460; first compound 15.81 µM) was 0.0607 and the relative viability (NCI-H460; first compound 50 µM) was 0.0741. It also gave a relative viability (NCI-H460; first compound 158.11 µM) of 0.0795, a relative viability (NCI-H460; first compound 500 µM) of 0.0168 and a relative viability (NCI-H520; first compound 5 µM) of 0.708. For the same compound, the relative viability (NCI-H520; first compound 15.81 µM) was 0.627, the relative viability (NCI-H520; first compound 50 µM) was 0.527 and the relative viability (NCI-H520; first compound 158.11 µM) was 0.232. The relative viability (NCI-H520; first compound 500 µM) was 0.155, the relative viability (NCI-H596; first compound 5 µM) was 0.538 and the relative viability (NCI-H596; first compound 15.81 µM) was 0.48. It also gave a relative viability (NCI-H596; first compound 50 µM) of 0.519, a relative viability (NCI-H596; first compound 158.11 µM) of 0.352 and a relative viability (NCI-H596; first compound 500 µM) of 0.0295. The relative viability (NCI-H650; first compound 5 µM) was 1.01, the relative viability (NCI-H650; first compound 15.81 µM) was 0.821 and the relative viability (NCI-H650; first compound 50 µM) was 0.897. It also gave a relative viability (NCI-H650; first compound 158.11 µM) of 0.641, a relative viability (NCI-H650; first compound 500 µM) of 0.826 and a relative viability (NCI-H838; first compound 5 µM) of 0.232. It also gave a relative viability (NCI-H838; first compound 15.81 µM) of 0.229, a relative viability (NCI-H838; first compound 50 µM) of 0.215 and a relative viability (NCI-H838; first compound 158.11 µM) of 0.149. The relative viability (NCI-H838; first compound 500 µM) was 0.0989, the relative viability (SW 1573; first compound 5 µM) was 0.771 and the relative viability (SW 1573; first compound 15.81 µM) was 0.777. For the same compound, the relative viability (SW 1573; first compound 50 µM) was 0.781, the relative viability (SW 1573; first compound 158.11 µM) was 0.317 and the relative viability (SW 1573; first compound 500 µM) was 0.0621.
